# Measurements published in patent US20070104714A1, “Composition and method for the treatment of cancer and other physiologic conditins based on modulation of the ppar-gamma pathway and her-kinase axis” (CEDARS-SINAI MEDICAL CENTER, priority 2003, published 2007).
# Key:
# [1] = Toxicity and weight loss in xenograft-bearing treated animals; assay type: in vivo, nude mice; settings: for Lethal toxicity or significant weight loss: combination study, CWRSA6, R-etodolac 200 mg/kg daily, 2C4 20 mg/kg 2X/wk, three weeks
# PPARγ1 = assay: PPARγ protein (Western blot) and mRNA (RT-PCR) in treated prostate cancer xenografts; assay type: in vivo, nude mice; settings: for PPARγ protein by immunoblot in xenograft lysates of combination study: 22 days of treatment
# Protocol: (§1) Total RNA was extracted from prostate tumors or the LNCaP cell line using the TRIZOL reagent (obtained from Invitrogen Corp.; San Diego, Calif.). Samples were heated at 95° C. for 3 minutes and snap-cooled before proceeding with DNase I treatment to prevent RNA/DNA hybridization. DNase I (obtained from Ambion; Austin, Tex.) was used to remove any genomic DNA that might interfere with the reaction. Samples were treated with DNase I for 1 hour at 37° C. The RNA yield was quantified spectrometrically.
# Total RNA was reverse-transcribed (RT) into cDNA and polymerase chain reaction (PCR) was performed in the same reaction using a real-time TAQman One-Step RT-PCR Master Mix Reagents Kit (obtained from Applied Biosystems; Foster City, Calif.). The sequences of the primer/probe sets used for this analysis are as follows. F and R are the forward and reverse primers, respectively, and P is the fluorescent-labeled probe.
# The real-time one step RT-PCR cycling conditions for all primer sets were as follows: 30 min at 48° C. for RT step; 10 min at 95° C. for […] Gold Activation; and 40 cycles for cDNA denaturing (95° C., 15 s), and annealing/elongation (60° C. for 1 min) steps. PCR reactions for each template were done in triplicate using 1 μg of total RNA per sample. Each gene-specific primer pair was tested on standard 384-well plates. Standard curves were constructed using 10-1000 ng of total RNA prepared from the CWRSA6 tumor line.
# The comparative CT method (Perkin Elmer Applied Biosystems; Foster City, Calif.) was used to determine relative quantification of gene expression for each gene compared with the β-actin control. First, the CT values from the β-actin reactions were averaged for each triplicate. Next, the CT values from the gene-of-interest reactions were averaged. The gene-of-interest average was […] the β-actin average to take into account the variability of total RNA.
# (§2) Immunoblots were performed as described in Towbin H., “Electrophoretic Transfer of Proteins from Polyacrylamide Gels to Nitrocellulose Sheets: Procedure and Some Applications,” Proc. Natl. Acad. Sci. USA, Vol. 76, No. 9 p. 4350-4354 (1979) using aliquots of tumor lysates (100 μg per lane) or lysates from LNCaP cells (100 μg per lane). Protein concentration was determined with a Bradford Assay (obtained from Bio-Rad Inc.; Hercules, Calif.). The lysates were separated on 10% SDS polyacrylamide gels and transferred onto nitrocellulose filters. […]
# PPARγ = biological target: T1, PPARγ (Homo sapiens, UniProt P37231); assay: PPARγ reporter (AOx)3-TK-Luc transient transfection luciferase assay in RAW 267.4 cells; assay type: cell-based; settings: for PPRE-driven reporter gene expression / PPARγ transactivation: varying concentrations, with recombinant PPARγ
# T1 construct: expressed in transfected cells; host or cells: RAW 267.4 mouse macrophages
# T1 sequence (P37231 1-505): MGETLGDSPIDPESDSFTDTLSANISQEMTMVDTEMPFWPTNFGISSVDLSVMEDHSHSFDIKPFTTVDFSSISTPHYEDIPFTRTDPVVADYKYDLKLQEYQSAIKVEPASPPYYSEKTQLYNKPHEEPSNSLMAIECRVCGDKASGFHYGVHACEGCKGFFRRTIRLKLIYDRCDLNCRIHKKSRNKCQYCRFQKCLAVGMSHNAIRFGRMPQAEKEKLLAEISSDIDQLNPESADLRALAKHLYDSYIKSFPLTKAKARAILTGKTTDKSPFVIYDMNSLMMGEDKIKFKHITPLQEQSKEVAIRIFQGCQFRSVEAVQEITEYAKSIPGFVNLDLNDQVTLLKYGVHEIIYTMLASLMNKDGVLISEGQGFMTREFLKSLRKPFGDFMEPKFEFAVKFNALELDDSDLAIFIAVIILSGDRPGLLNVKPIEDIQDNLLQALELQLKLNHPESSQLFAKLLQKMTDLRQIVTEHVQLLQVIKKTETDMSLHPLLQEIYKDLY
# Protocol: […] cells were maintained at 37° C. and 5% CO2 in Dulbecco's modified eagle medium (DMEM) with high glucose (obtained from GIBCO; Grand Island, N.Y.) supplemented with 10% fetal bovine serum (FBS), 100 μg/ml penicillin and 100 μg/ml streptomycin.
# For transfection, cells were grown in DMEM with 10% FBS for at least 24 hours prior to transfection. Transient transfections were performed in 12-well plates for at least 24 hours prior to transfection. At approximately 50% confluence, cells were transfected using the FuGENE transfection reagent (obtained from Roche Diagnostics GmbH; Mannheim, Germany) according to the manufacturer's instruction with 0.5 μg of reporter plasmid (AOx)3-TK-Luc, 0.1 to 0.2 μg of control plasmid pCMXμgal, 0.1 μg PPARγ expression plasmid and carrier DNA for a total of 1 μg DNA per well. After 16 hours, the cells were washed and fresh medium containing the appropriate amount of drugs, prepared in 0.5% DMSO, was added to the cells for another 24 hours. The cells were treated with either vehicle alone (DMSO), indomethacin, rosiglitazone or varying concentrations of R- or S-etodolac.
# For luciferase assays, cells were lysed in potassium phosphate buffer containing 1% TRITON X-100 (obtained from Rohm and Haas Co.; Philadelphia, Pa.) and light emission was detected in the presence of luciferin using a microtiter plate luminometer. Luciferase values were normalized for variations in transfection efficiency using a β-galactosidase internal control. The results are expressed as relative luciferase units (RLU). The luciferase activity values represent the mean of a minimum of three independent transfections performed in triplicate.
# The 22Rv1 cells were seeded into 100 mm dishes and allowed to attach for a period of 18 hours. The media was then replaced with phenol red-free and serum-free RPMI 1640, with 100 μg/ml penicillin and 100 μg/ml streptomycin ±R-etodolac for the indicated times. MAP-kinase activation was assessed by Western blot analysis using methods described above. LNCaP cells were treated with R-etodolac at 200, 400, and 600 μM concentrations for 18 Hours. Total protein or RNA was isolated using methods as described previously. Cyclin D1 protein and mRNA expression were assessed by western blot and a real-time quantitative RT-PCR assay as previously described. This transactivation function is mediated only in the presence of recombinant PPARγ.
# [2] = system: CD36 expression in THP-1 cells; assay: TPA-induced CD36 scavenger receptor expression in THP-1 cells by flow cytometry; assay type: cell-based, human; settings: 200 μM, TPA 40 ng/ml
# Protocol: Prostate carcinoma cell lines, 22Rv1 and LNCaP, and human acute monocytic leukemia (THP-1) cells were obtained from the American Type Culture Collection (Rockville, Md.) and maintained in RPMI 1640 medium supplemented with 10% FBS, 100 μg/ml penicillin and 100 μg/ml streptomycin (obtained from GIBCO; Grand Island, N.Y.). […] Second, the combination of PPARγ transactivation, together with protein kinase C activation by a phorbol ester, has been reported to induce the scavenger receptor CD36 in macrophages (Han and […], 2002). CD36 is documented as a PPARγ-regulated gene (Tontonoz et al., 1998). […] THP-1 cells were treated for 5 days with 200 μM etodolac (racemic mixture) and 20 μM troglitazone in the presence or absence of 40 ng/ml phorbol ester (TPA) for 48 hours. Cells were fixed and stained with unconjugated anti-CD36 and FITC conjugated anti-IgG and analyzed by flow cytometry. A population of 10,000 viable cells was analyzed for each treatment.
# NIH3T3-PPARγ cells = assay: Neutral lipid accumulation (Oil Red O) in NIH3T3 cells expressing recombinant PPARγ; assay type: cell-based, mouse
# Protocol: Third, PPARγ is accepted as a master regulator of adipocyte differentiation. […] NIH3T3 cells that stably overexpress retrovirally expressed recombinant PPARγ were obtained from Dr. Ronald Evans (Salk Institute, La Jolla, Calif.). […] NIH3T3 cells stably expressing recombinant PPARγ (obtained from Dr. Ronald Evans of the Jonas Salk Institute; San Diego, Calif.) were maintained in DMEM supplemented with 10% BCS, 100 μg/ml penicillin and 100 μg/ml streptomycin (obtained from GIBCO; Grand Island, N.Y.). The cells were treated for seven days with the indicated compounds and concentrations and stained for neutral lipids with Oil Red O as described by Green and Kehinde (“Sublines of mouse 3T3 cells that accumulate lipid,” Cell, Vol. 1, p. 113-116 (1974)).
# [3] = system: LuCaP-35 human prostate cancer xenografts; assay: Tumor growth of androgen-dependent LuCaP-35 prostate cancer xenografts in nude mice; assay type: in vivo; settings: 200 mg/kg o.g. daily; p=0.0103
# [4] = system: cyclin D1 expression in LNCaP cells; assay: Cyclin D1 mRNA (RT-PCR) and protein (Western blot) expression in LNCaP cells; assay type: cell-based, human
# Protocol: as §1, with “spectrometrically. […]” for “spectrometrically.”
# (§3) The mRNA expression of cyclin D1 (Takayasu, H. et al., “Frequent deletions and mutations of the beta-catenin gene are associated with overexpression of cyclin D1 and fibronectin and poorly differentiated histology in childhood hepatoblastoma,” Clin. Cancer Res., Vol. 7, p. 901-908 (2001)) and the HER-kinase receptors were analyzed using primer sets as described in Agus, D. B. et al, “Targeting ligand activated ErbB2 signaling inhibits breast and prostate tumor growth,” Cancer Cell, Vol. 2, p. […]
# (§4) The comparative CT method (Perkin Elmer Applied Biosystems; Foster City, Calif.) was used to determine relative quantification of gene expression for each gene compared with the β-actin control. […]
# The 22Rv1 cells were seeded into 100 mm dishes and allowed to attach for a period of 18 hours. […] MAP-kinase activation was assessed by Western blot analysis using methods described above. […]
# [5] = system: phospho-p44/42 MAP kinase; assay: Phospho-MAP kinase (p44/42) Western blot in CWRSA6 xenografts, time course; assay type: in vivo, nude mice
# Protocol: Immunoblots were performed as described in Towbin H., “Electrophoretic Transfer of Proteins from Polyacrylamide Gels to Nitrocellulose Sheets: Procedure and Some Applications,” Proc. Natl. Acad. Sci. USA, Vol. 76, No. 9 p. 4350-4354 (1979) using aliquots of tumor lysates (100 μg per lane) or lysates from LNCaP cells (100 μg per lane). Protein concentration was determined with a Bradford Assay (obtained from Bio-Rad Inc.; Hercules, Calif.). The lysates were separated on 10% SDS polyacrylamide gels and transferred onto nitrocellulose filters. The membranes were incubated overnight at 4° C. with antibodies against PPARγ (Sc-7273 obtained from Santa Cruz Inc.; Santa Cruz, Calif.), ERK1 (Sc-94 obtained from Santa Cruz Inc.; Santa Cruz, Calif.), and phospho-p44/42 MAP kinase (9101S obtained from Cell Signal; Beverly, Mass.), and cyclin D1 (554180 obtained from BD Pharmingen; San Diego, Calif.) in parallel with anti-β-actin antibodies (A2066 obtained from Sigma; St. Louis, Mo.) and washed well before incubating with the appropriate α-mouse or α-rabbit secondary antibody conjugated with horseradish peroxidase (obtained from Amersham Biosciences, UK).
# [6] = system: phospho-MAP kinase in 22Rv1 cells; assay: Phospho-MAP kinase activation Western blot in 22Rv1 prostate cancer cells; assay type: cell-based, human; settings: 500 μM, within 20 minutes of addition, then sustained
# Protocol: as §2
# The 22Rv1 cells were seeded into 100 mm dishes and allowed to attach for a period of 18 hours. […] MAP-kinase activation was assessed by Western blot analysis using methods described above. […] Cyclin D1 protein and mRNA expression were assessed by western blot and a real-time quantitative RT-PCR assay as previously described. […]
# HER-kinase receptors = assay: HER-kinase receptor mRNA expression in treated xenografts (RT-PCR); assay type: in vivo, nude mice; settings: data not shown
# Protocol: as §1, with “spectrometrically. […]” for “spectrometrically.”
# as §3, §4
# [7] = system: CWRSA6 human prostate cancer xenografts; settings: 200 mg/kg o.g. daily; p=0.002
# cyclooxygenase (COX) = settings: literature (Adachi et al.; Demerson et al.); cited from earlier work
compound,measurement,setting,value
2C4: Recombinant humanized HER-2 specific monoclonal antibody that inhibits ligand-induced heterodimerization of ErbB2,Lethal toxicity or significant weight loss,[1],no lethal toxicity or significant weight loss
same,PPARγ protein by immunoblot in xenograft lysates of combination study,PPARγ1; CWRSA6 xenografts,expressed PPARγ
CCc1cccc2c3c([nH]c12)[C@@](CC)(CC(=O)O)OCC3 [R-etodolac],Transactivation of PPARγ reporter (fold-induction of luciferase expression),"PPARγ; 100 μM, relative to no drug control, 24 hours",13 fold
same,PPRE-driven reporter gene expression / PPARγ transactivation,PPARγ,enhances reporter gene expression in a dose dependent manner
same,CD36 expression as downstream indicator of PPARγ activation,[2],equivalent potency
same,Accumulation of neutral lipids and morphological changes (Oil Red O),"NIH3T3-PPARγ cells; 1 μM, seven days",displayed accumulation of neutral lipids
same,Lipid uptake (Oil Red O),"NIH3T3-PPARγ cells; 500 μM, seven days",significantly more pronounced
same,Lipid uptake in NIH3T3 cells transfected with the empty retroviral vector,"NIH3T3-PPARγ cells; empty vector control cells, data not shown",did not demonstrate the lipid uptake
same,Tumor growth inhibition relative to control-treated animals,[3],46%
same,Lethal toxicity or weight loss (greater than 10% body weight),"[1]; 200 mg/kg o.g. daily, single agent study",no lethal toxicity or weight loss
same,Lethal toxicity or significant weight loss,[1],no lethal toxicity or significant weight loss
same,Cyclin D1 protein expression,"[4]; 18 hours, 200, 400 and 600 μM",downregulation
same,Cyclin D1 mRNA expression,"[4]; 18 hours, 200 and 400 μM",downregulation
same,PPARγ protein in tumors vs vehicle treated control,"PPARγ1; CWRSA6 and LuCaP-35 xenografts, two to three weeks of treatment, 200 mg/kg",completely eliminated
same,PPARγ receptor level in time course experiment,"PPARγ1; CWRSA6 xenografts, 24 to 72 hours post treatment",upregulation of the PPARγ receptor in the majority of the animals
same,PPARγ protein by immunoblot in xenograft lysates of combination study,PPARγ1; CWRSA6 xenografts,complete ablation
same,Phosphorylated p44/42 levels,"[5]; 24 hours post treatment, 200 mg/kg",sharp increase
same,Total MAP kinase expression,[5]; time course,No difference
same,"MAP kinase activation, rest of time course",[5]; up to 72 hours,low level of sustained activation
same,Phospho-MAP kinase activation,[6],transient peak
same,mRNA expression of the HER-kinase receptors,HER-kinase receptors,did not alter
same,Tumor growth inhibition relative to control-treated animals,[7],66%
same,COX inhibitory activity,cyclooxygenase (COX),lacks COX inhibitory activity
CCc1cccc2c3c([nH]c12)[C@](CC)(CC(=O)O)OCC3 [S-etodolac],PPRE-driven reporter gene expression / PPARγ transactivation,PPARγ,can also transactivate PPARγ but to significantly lower levels
COc1ccc2c(c1)c(CC(=O)O)c(C)n2C(=O)c1ccc(Cl)cc1 [indomethacin],PPARγ transactivation compared with 100 μM R-etodolac,PPARγ; 10 μM,comparable
